Results published in a melting point compilation (Tetko et al.; mined from patent text by program, amines drawn as free bases though some values may be those of a salt).

Row | SMILES | melting point [°C]
1 | O=C1C2Cc3cc4ccccc4n3CC2CN1Cc1ccccc1 (centres undefined) | 121 to 123
2 | Cn1cnc(S(=O)(=O)N2CCn3c(c(C(N)=O)c(Cl)c3-c3ccccc3)C2)c1 | 260 to 263
3 | CCC1(C2CCCC2)Cc2cc(OCCCC(=O)O)c(Cl)c(Cl)c2C1=O (centres undefined) | 189 to 193
4 | CC(CN1C(=O)c2ccccc2C1=O)c1c[nH]c2ccc(C#N)cc12 (centres undefined) | 218 to 220
5 | CC(C)NS(=O)(=O)c1ccc(N2CCC(N3C(=O)OCc4ccccc43)CC2)c([N+](=O)[O-])c1 | 168
6 | COc1ccc(S(=O)(=O)c2c(Br)cc(CC(=O)O)cc2Br)cc1C1CCCCC1 | 146 to 150
7 | CCc1ccc2ncc([N+](=O)[O-])c(Nc3ccccc3Cl)c2c1 | 134 to 136
8 | O=S(=O)(c1cccs1)N(CC1CC1)c1cccc2cc(-c3ncc(CCl)s3)[nH]c12 | 135
9 | C[C@@H](Cn1ncc2ccc3c(c21)C[C@@H](OCC(N)=O)CO3)N=[N+]=[N-] | 94 to 97
10 | Nc1cc(N2CCC(O)CC2)c(F)cc1[N+](=O)[O-] | 238 to 239
11 | CCCN(C(=S)n1ccnc1)c1ccccc1Cl | 59 to 61
12 | CC=CC1OC(=O)c2ccc(N)cc21 (centres undefined) | 125 to 130
13 | O=C1CC2CCCCC2=NN1c1ccc(Cl)cc1F (centres undefined) | 110 to 112
14 | CCCCC(=O)c1ccc(NC(C)=O)cc1O | 113
15 | CN1CCN(c2cc3c(Cl)cccc3c(=O)[nH]2)CC1 | 230 to 231
16 | C=C(CC1(CC)C(=O)CCC1=O)C1=CCCc2cc(OC)ccc21 | 100 to 125
17 | O=S(=O)(CC1CC1)c1nc(-c2ccc(F)cc2)c(-c2ccc(F)cc2)[nH]1 | 251
18 | CCOC(=O)c1c[nH]c(=O)s1 | 127
19 | COc1ccc(S(=O)(=O)C(CCCCc2ccccc2)C(=O)NO)cc1OC (centres undefined) | 180 to 188
20 | COc1ccc(C(=O)c2noc(CC#N)n2)cc1 | 92 to 94
21 | COC(=O)C(=O)c1ccc(OCCCCOc2ccc3ccccc3c2)cc1 | 93 to 95
22 | ClCc1cccc2nnsc12 | 78 to 80
23 | COc1cc(OC)cc(-c2cc(=O)c3ccc(OCC4CO4)cc3o2)c1 (centres undefined) | 181 to 182
24 | CCOc1nc2ccccc2nc1C(=O)Nc1ccc(OCCCCN2CCc3cc(OC)c(OC)cc3C2)cc1 | 182
25 | CC(=O)OCC1=C(C(=O)O)N2C(=O)C(NC(=O)Cn3ccnc3S(C)=O)C2SC1 (centres undefined) | 220

Row | SMILES | melting point [°C]
26 | NC(=O)/C=C/c1cc2c(Oc3ccc(Cl)cc3)cncc2s1 | 176 to 178
27 | c1ccc(CN2CCCC3(CC2)CC(c2ccccc2)=NO3)cc1 (centres undefined) | 42 to 57
28 | CN1NC(c2ccccc2Cl)=NN=C1c1ccccc1Cl | 115 to 116
29 | CCCCCCCNC(=O)Nc1cccc(N(C)C)c1C(=O)NC1CCN(C(c2ccccc2)c2ccccc2)CC1 | 77
30 | Cc1cc(C(C#N)=CN(C)C)cc(C)n1 | 149
31 | COc1cc2c(cc1OC)CCCC(C(=O)N1CCN(C(=O)c3cc(OC)c(OC)c(OC)c3)CC1)=C2 | 164 to 165
32 | O=C(Cn1c(-c2ccc3c(c2)OCO3)nc2ccccc21)c1ccccc1 | 186 to 189
33 | N#Cc1cccc(NC(=O)c2ccn(-c3ccc(Cl)cc3)c2)c1N1CCC(N2CCOCC2)CC1 | 220
34 | COc1ccccc1-c1ccc2c(c1)S(=O)(=O)NC(C1CCCCC1)N2 (centres undefined) | 219 to 222
35 | CCOC(=O)COc1ccc2nc(CC)cc(OCc3ccc(-c4ccccc4-c4nnn(C(c5ccccc5)(c5ccccc5)c5ccccc5)n4)cc3)c2n1 | 146 to 150
36 | CCOC(CNC(=S)Nc1nccs1)OCC | 118 to 119
37 | Cc1cn(CCC(=O)O)c(=O)[nH]c1=O | 118 to 121
38 | CC(C)(C)OC(=O)N1CCN(c2ccc(Oc3cc(Cl)ccc3N)cc2)CC1 | 95 to 96
39 | CNc1nc(C(=O)c2ccc([N+](=O)[O-])c(OC)c2)n2ccccc12 | 208
40 | COC1(c2ccc(CCc3cc(F)cc(F)c3NC(=O)C(C)(C)C)cc2)CCOCC1 | 147 to 148
41 | CC(C)=NOCc1nc2c(N)nc(C)c(C)c2n1CCCCN(C(N)=O)C1CCCCC1 | 210 to 212
42 | CCn1c(=N)c(F)cn(S(=O)(=O)c2ccccc2)c1=O | 163 to 166
43 | CC1(O)c2ccccc2-c2[nH]nc(-c3ccccc3)c21 (centres undefined) | 154 to 155
44 | Cc1c(C)c2c(c(C)c1N)C(c1ccc(Br)cc1)C(C)(C)O2 (single isomer, unassigned; (+)) | 143 to 144
45 | CCCCCC(O)C=CC1C(O)CC(=O)C1CCCCCCC(=O)Oc1ccc(-c2cc(=S)ss2)cc1 (centres undefined) | 101 to 105
46 | CS(=O)(=O)c1ccc(-c2coc(=O)n2-c2ccc(Br)cc2)cc1 | 217 to 219
47 | COc1ccc(CNc2nc(Cl)nc(Cl)c2C(=O)O)cc1Cl | 150 to 151
48 | CN(C)CCOc1ccc(C=NCCN=Cc2ccc(OCCN(C)C)cc2O)c(O)c1 | 92 to 94
49 | CC(C)(C)c1ccc(C(=O)NP(N)(N)=O)cc1 | 232
50 | CCCC(=O)Nc1cccc(-c2ccc3nnc(C)n3n2)c1 | 195 to 198

Row | SMILES | melting point [°C]
51 | CC1(C(=O)NC(CCC(=O)O)Cc2ccccc2)Cc2c([nH]c3ccccc23)CN1C(=O)OC1C2CC3CC(C2)CC1C3 (centres undefined) | 133 to 138
52 | O=C(O)c1cccc(-c2coc3c(O)c(O)ccc3c2=O)c1 | 313 to 314
53 | O=C(Nc1ccc(-n2nc(C(F)(F)F)cc2C(F)(F)F)cc1)c1c(F)cc(Cl)cc1Cl | 185 to 188
54 | Cc1cccc(NC(=O)NCc2ccc(-c3n[nH]c4c3Cc3cc(CN5CCOCC5)ccc3-4)s2)c1 | 158 to 161
55 | CC1(C)CCCN(C(=O)CN(C(=O)CNC(=O)Nc2cccc(CCO)c2)c2ccccc2)C1 | 175
56 | O=C1CC(SSSSC2CC(=O)NC2=O)C(=O)N1 (centres undefined) | 108 to 114
57 | O=C1C(c2cc(OCc3ccccc3)ccc2O)c2ccccc2N1Cc1ccc(Cl)s1 (centres undefined) | 173 to 175
58 | N#Cc1c(OCC2CO2)cccc1[N+](=O)[O-] (centres undefined) | 131 to 135
59 | Cc1nc(NC(=O)Nc2ccc(N3CCN(C(=O)Nc4ccc(OCCO)cc4Cl)CC3)nc2)sc1C | 184 to 185
60 | CN1CCN(c2cc(Cl)cc3c2c(=O)n(Cc2ccccc2Cl)c(=O)n3Cc2ccccc2)CC1 | 87 to 92
61 | Cc1oc(-c2ccco2)nc1COc1cccc(COc2nn(Cc3ccccc3)cc2C=O)c1 | 135 to 136
62 | C[C@@H](NC(=O)c1c[nH]c2ncc(-c3nn(C)c4cc(Cl)cc(Cl)c34)nc12)C(=O)N1CC(C#N)C1 | 196 to 200
63 | CCN(CC)CCOc1ccc(Nc2ncc3c(n2)N(c2ccccc2)C(=O)N(c2ccc(Cl)cc2Cl)C3)cc1 | 106 to 108
64 | CCCN1C(=O)COc2cc(F)c(N=c3sc(=S)n4n3CCCC4)cc21 | 112 to 114
65 | N#Cc1cc2ccc(Cl)cc2[nH]c1=O | 306 to 309
66 | COc1ccc(C(=O)NCCc2ccccc2)cc1OC | 123 to 124
67 | COc1ccnc(CCc2nc3cc(I)cnc3[nH]2)c1 | 207 to 208
68 | CC1=CC(C)(C)Nc2cc3oc(=O)cc(C)c3cc21 | 270 to 274
69 | CCC(CC)Cn1c(=O)c(=O)[nH]c2cc(Cl)ccc21 | 253 to 255
70 | Cc1ccc2c(c1)C1(COc3cc4c(cc31)OCCO4)C(=O)N2Cc1ncccc1C(F)(F)F (centres undefined) | 137 to 139
71 | O=[N+]([O-])c1ccccc1C(Cl)Cl | 25.6 to 26.7
72 | OC(CN1CCNCC1)C(O)(c1ccccc1)C1CCCC1 (centres undefined) | 50
73 | O=C(O)C(=O)c1ccc(OCc2ccc3ccccc3n2)cc1 | 225 to 228
74 | COc1ccc(-n2cc(C(=O)O)c(C)n2)cc1 | 176 to 178
75 | O=C(O)CCc1nc(-c2cc3ccccc3o2)cs1 | 203 to 205

Row | SMILES | melting point [°C]
76 | COC1(O)C=C(O)C(C(O)C(=O)c2ccccc2)=CC1 (centres undefined) | 192 to 193
77 | O=C1Nc2cc(Cl)cc(Cl)c2C1c1cc(Cl)ccc1O (centres undefined) | 238 to 240
78 | NNC(=O)c1cc(Cl)c(O)cc1O | 260
79 | OC(CCCl)COc1ccc(-c2ccccc2)cc1 (centres undefined) | 123 to 124
80 | Cc1c(C=CC#N)c2c(c(C)c1OCc1ccccc1)CCC(C)(C)O2 | 108
81 | CC(C)(C)C(NC(=O)c1ccc(Cl)cc1F)NC(=NC#N)Nc1cccnc1 (centres undefined) | 183 to 184
82 | Cc1cc(C)c(-n2ccc3c(N)n[nH]c(=O)c32)c(C)c1 | 290 to 292
83 | COc1ncc(-c2ccc3nnn(Cc4ccc5ncccc5c4)c3n2)cn1 | 201 to 203
84 | CCc1cc(C(=O)c2ccccc2Cl)c(-n2nnnc2CNC(=O)c2cc3ccccc3[nH]2)s1 | 146 to 149
85 | CN(C)c1ccc(C2(c3ccc(N(C)C)cc3N(C)C)OC(=O)c3cc(N(C)C)ccc32)cc1 (centres undefined) | 182 to 185
86 | CCC(=O)NCCC1CCc2cc(Br)c3c(c21)CCCO3 (centres undefined) | 114 to 116
87 | CC(=O)c1ccc(N)c(C#N)c1 | 155 to 159
88 | O=C(O)c1ccc2c(=O)c3ccccc3ccc2c1 | 261 to 262
89 | c1cc2nc3c(n2nc1N1CCCCC1)CCCC3 | 184 to 185
90 | CCOC(=O)CC(C#N)=CC(=CN(C)C)c1ccc(Cl)cc1 | 168 to 170
91 | COc1cc(O)c(C(=O)c2ccccc2F)c(Cl)c1 | 85 to 90
92 | Nc1cc(-c2ccc(C(F)(F)F)cc2)no1 | 142 to 144
93 | CC(=O)OC(C)c1cc2c(s1)C(=O)c1c(C(C)OC(C)=O)csc1C2=O (centres undefined) | 180 to 182
94 | OCC1OC(c2ccc(Cl)c(Cc3ccc(-c4ccc(F)nc4)s3)c2)C(O)C(O)C1O (centres undefined) | 131 to 134
95 | O=C1Nc2ccccc2N(C(=O)CCCCl)c2ccccc21 | 151 to 152
96 | O=C(Nc1nnn(CC(F)(F)F)n1)C(c1ccccc1)c1ccccc1 | 146 to 148
97 | CNc1nc2[nH]c(-c3cccc(CNC(=O)COC)n3)cc2c2c1ncn2C | 263
98 | CCCCc1nc2ccc(C)c(C(=O)OCC)c2n1Cc1ccc(-c2ccccc2-c2nnn[nH]2)cc1 | 164 to 165
99 | Fc1ccc(-c2[nH]nc(Nc3ccccc3)c2-c2ccncc2)cc1 | 218 to 219
